Source: paper PMC8057513, “Comparison of edible brown algae extracts for the inhibition of intestinal carbohydrate digestive enzymes involved in glucose release from the diet” (Journal of Nutritional Science, 2021)
Converted amounts (≈) assume the structure as drawn.

Key:
Format in all cases: biochemical
[1] = target: T1, maltase (rat intestinal α-glucosidase); assay: maltose hydrolysis, released glucose by HPAEC-PAD; conditions: 10 mM maltose, phosphate buffer 100 mM pH 6.9, 37 °C, 30 min; crude intestinal extract
T1 construct: gene Mgam; crude phosphate-buffer supernatant of rat intestinal acetone powder (Sigma-Aldrich, labelled EC 3.2.1.48), not purified; maltose-hydrolysing activity of mixed brush-border alpha-glucosidases
Excerpt: maltose hydrolysis, released glucose by HPAEC-PAD on maltase (rat intestinal α-glucosidase)

[2] = target: T1, maltase (rat intestinal α-glucosidase); assay: maltose hydrolysis, released glucose by HPAEC-PAD; Dixon plot; conditions: maltose 1.25-5 mM, pH 6.9, 37 °C; competitive; crude intestinal extract
Excerpt: maltose hydrolysis, released glucose by HPAEC-PAD; Dixon plot on maltase (rat intestinal α-glucosidase)

[3] = system: T1, maltase (rat intestinal α-glucosidase); assay: maltose hydrolysis, released glucose by HPAEC-PAD; Lineweaver-Burk plot; conditions: phosphate buffer 100 mM pH 6.9, 37 °C; crude intestinal extract

IC50 [1] [µg/mL] | Ki [2] [µg/mL] | Km [3] [mM] | SMILES
0.15 ± 0.02 (≈ 0.232 µM) | 0.07 (≈ 0.108 µM) | – | C[C@H]1O[C@H](O[C@H]2[C@H](O)[C@@H](O)[C@@H](O[C@H]3[C@H](O)[C@@H](O)C(O)O[C@@H]3CO)O[C@@H]2CO)[C@H](O)[C@@H](O)[C@@H]1N[C@H]1C=C(CO)[C@@H](O)[C@H](O)[C@H]1O (stereo partly drawn) [Acarbose]
– | – | 5.8 | OC[C@H]1O[C@H](O[C@H]2[C@H](O)[C@@H](O)C(O)O[C@@H]2CO)[C@H](O)[C@@H](O)[C@@H]1O (stereo partly drawn) [maltose]
